Measured values taken from PMC11504387, “Synthesis and Biological Activity Assessment of 2-Styrylbenzothiazoles as Potential Multifunctional Therapeutic Agents” (Antioxidants, 2024).
Marks after values point to notes of the source that are not given here.

Experiments:
[1] = target: T1, 5-LO in A23187-stimulated human PMNL (Homo sapiens, UniProt P09917); assay: 5-Lipoxygenase inhibition in a cell-based assay (PMNL); settings: for remaining activity at 10 µM: PMNL, % relative to vehicle (DMSO), read-out: 5-LO Residual Activity (PMNL, 10 µM); for IC50: activated PMNL
T1 construct: Freshly isolated PMNL (1 × 10^6 cells/mL) in PBS buffer pH 7.4; endogenous in cells; host or cells: primary human PMNL (neutrophils) isolated from blood
T1 sequence (P09917 1-674): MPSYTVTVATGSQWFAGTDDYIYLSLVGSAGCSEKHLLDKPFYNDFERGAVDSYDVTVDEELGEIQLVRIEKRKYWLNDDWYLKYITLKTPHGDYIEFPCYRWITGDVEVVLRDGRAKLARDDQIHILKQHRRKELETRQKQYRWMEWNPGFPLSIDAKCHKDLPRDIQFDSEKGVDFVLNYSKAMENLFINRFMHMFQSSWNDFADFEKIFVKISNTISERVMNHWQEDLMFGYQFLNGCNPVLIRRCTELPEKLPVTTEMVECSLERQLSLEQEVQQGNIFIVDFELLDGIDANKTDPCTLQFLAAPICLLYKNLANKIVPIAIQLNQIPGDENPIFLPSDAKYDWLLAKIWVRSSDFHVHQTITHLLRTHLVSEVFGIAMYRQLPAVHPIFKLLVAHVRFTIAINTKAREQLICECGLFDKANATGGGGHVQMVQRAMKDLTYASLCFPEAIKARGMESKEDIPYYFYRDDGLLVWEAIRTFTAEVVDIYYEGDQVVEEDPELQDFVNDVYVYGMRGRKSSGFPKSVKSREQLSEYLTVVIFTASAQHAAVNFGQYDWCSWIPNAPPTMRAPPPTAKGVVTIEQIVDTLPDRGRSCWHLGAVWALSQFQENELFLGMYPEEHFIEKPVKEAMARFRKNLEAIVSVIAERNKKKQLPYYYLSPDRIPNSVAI
Description: Following blood density centrifugation and cell population separation, PMNL was recovered from the pellet after hypotonic lysis of erythrocytes. Freshly isolated PMNL (1 × 10^6 cells/mL) in PBS buffer pH 7.4 with glucose (1 mg/mL) and CaCl2 (1 mM) was pre-incubated with the test compounds for 10 min at 37 °C. Then, 5-lipoxygenase (5-LO) product formation was started by addition of 2.5 μM Ca^2+-ionophore A23187 plus 20 μM arachidonic acid. The reaction was stopped after 10 min at 37 °C with 1 mL of ice-cold methanol containing 200 ng PGB1 as internal standard. Major 5-LO products (LTB4, trans-LTB4, epi-trans-LTB4, and 5-HETE) were extracted by SPE using Sep-Pak C18 35 cc Vac Cartridges (Waters, Milford, MA, USA) and analysed by UPLC-MS/MS as described by Pein et al..

[2] = ORAC assay; assay type: biochemical; settings: Trolox equivalents; mean ± SD
Description: The ORAC assay was performed based on the previously modified Hong procedure. The sodium salt of fluorescein (85 nM) was used as a target for free radical attack with 2,2′-azobis(2-amidinopropane) dichloride (AAPH) as a peroxyl radical generator in the final assay mixture (total volume of 0.2 mL). The test involves a calibration curve of Trolox (standard control) with different concentrations (40 to 240 μM). The compounds tested were first dissolved in DMSO:MeOH and then diluted in phosphate buffer solution pH 7.4. Fluorescence measurements were performed at 37 °C and recorded at 5-min intervals up to 30 min after the addition of AAPH. ORAC values were calculated as the difference in areas under the fluorescein quenching curves between the blank and the sample and were expressed as µmol Trolox equivalents (TE) per gram of dried sample.

[3] = Photostability of O/W emulsions under solar simulator; assay type: physicochemical; settings: for Photostability (classification, threshold 80%): O/W emulsion, solar irradiation; for %UVAPfeff.: residual UVAPF after solar irradiation; for %UVAPfeff. / %SPFeff.: O/W emulsion on PMMA; for %SPFeff.: residual in vitro SPF after solar irradiation
Description: Oil-in-water (O/W) emulsions containing individual filters were spread on PMMA sheet and irradiated with a solar simulator by applying different doses of UVA equivalent to an erythema effective radiant exposure of 100 J/m^2. Photostability was assessed by analysing the spectral transmittance, before and after irradiation, of the sunscreen thin film, measured before and after exposure from 290 to 400 nm. The residual percentages of SPF in vitro (%SPFeff.) and UVAPF (%UVAPFeff.) were calculated according to Equations (6) and (7), respectively. When the %SPFeff. and %UVAPFeff. are greater than or equal to 80, according to current regulations, a filter can be considered photostable [37].
To evaluate the effectiveness and safety profile of a sunscreen formulation, it is necessary to provide data on its photostability. Photodegradation data can be obtained by recording the pre- and post-irradiation transmittance spectra of PMMA plates with finger-coat formulations exposed to a dose of UVA capable of causing erythema. This method, established by Garoli et al., is used to determine photostability. The sun protection layer’s transmission in the range of 290–400 nm is recorded before and after exposure to sunlight, following the protocol.
The residual percentages of SPF in vitro (%SPFeff.) and UVAPf (%UVAPfeff.) were calculated using Equations (6) and (7) and are listed in Table 4. A filter can be classified as photostable if the %SPFeff. is greater than or equal to 80, according to regulatory standards. %SPFeff. = in vitro SPFafter/in vitro SPFbefore × 100(6) %UVAPfeff. = UVAPfafter/UVAPfbefore × 100(7) where SPFafter and SPFbefore are the SPF values calculated from the software after and before solar irradiation, and UVAPfafter and UVAPfbefore are the UVAPf values calculated from the software after and before solar irradiation.

[4] = test system: PMNL; assay: ROS production in PMA-stimulated PMNL; assay type: cell-based, human; settings: 10 µM; for ROS Production (% of Control): mean ± SD
Description: After 10 min at 37 °C, PMA (0.1 μM) was added. The fluorescence emission at 530 nm was measured after excitation at 485 nm in a thermally controlled (37 °C) NOVOstar microplate reader (BMG Lab technologies GmbH, Offenburg, Germany). […] ROS generation was induced by phorbol-12-myristate-13-acetate (PMA), a widely recognized agent for stimulating ROS production in neutrophils and enhancing endogenous superoxide formation. Diphenyleneiodonium (DPI, 10 µM), a NADPH oxidase inhibitor, served as a positive control. Through this assay, we could assess the potential interaction of our compounds with intracellular ROS production and their capacity to act as radical scavengers within a relevant cellular context. Furthermore, the outcomes provided additional insights into their inhibitory mechanism and helped to determine whether they act directly or non-specifically, as there is evidence that an impact on the ROS levels in PMNL could be translated to modulation of 5-LO activity in the cellular environment. […] With those data in hand, together with 5-LO inhibition assay outcomes, a direct inhibition of the enzyme stands as the best fitting option regarding the mechanism of action of compounds BZTst4 and BZTst6. […] This phenomenon was not further explored because such investigation was beyond the scope of this work.

Row | Structure (SMILES) | remaining activity at 10 µM [1] | ORAC [2] | Photostability (classification, threshold 80%) [3] | %UVAPfeff. [3] | %SPFeff. [3] | Effect on ROS production (in words) [4] | ROS Production (% of Control) [4] | IC50 [1] | Lowering of ROS production [4]
1 | C(=C\c1nc2ccccc2s1)/c1ccccc1 [BZTst1, (E)-2-styrylbenzo[d]thiazole] | 48.7 ± 10.2% | <LOQ ^b | cannot be considered photostable | 54.38% | 99.14% | do not display any significant interference | 124.78 ± 17.88 % of control |  | 
2 | Oc1ccc(/C=C/c2nc3ccccc3s2)cc1 [BZTst2, (E)-4-(2-(benzo[d]thiazol-2-yl)vinyl)phenol] | 22.9 ± 14.6% | 11,614.64 ± 1184.06 µmolTE/g |  | 95.96% | 104.43% | unexpected rise in the ROS level | >150% ^a % of control | 2900 nM | 
3 | COc1ccc(/C=C/c2nc3ccccc3s2)cc1 [BZTst3, (E)-2-(4-methoxystyryl)benzo[d]thiazole] | 75.3 ± 19.7% | 1077.84 ± 98.52 µmolTE/g |  | 152.12% | 103.21% | do not display any significant interference | 108.70 ± 12.15 % of control |  | 
4 | Oc1ccc(/C=C/c2nc3ccccc3s2)cc1O [BZTst4, (E)-4-(2-(benzo[d]thiazol-2-yl)vinyl)benzene-1,2-diol] | 0.79 ± 0.49% | <LOQ ^b |  | 101.57% | 104.02% |  | 53.81 ± 16.30 % of control | 700 nM | < 50%
5 | COc1ccc(/C=C/c2nc3ccccc3s2)cc1O [BZTst5, (E)-5-(2-(benzo[d]thiazol-2-yl)vinyl)-2-methoxyphenol] | 74 ± 25.8% | <LOQ ^b |  | 106.30% | 100.00% | do not display any significant interference | 99.62 ± 4.14 % of control |  | 
6 | COc1cc(/C=C/c2nc3ccccc3s2)ccc1O [BZTst6, (E)-4-(2-(benzo[d]thiazol-2-yl)vinyl)-2-methoxyphenol] | 7.11 ± 4.9% | 19,027.54 ± 46.67 µmolTE/g | photostable | 80.75% | 93.59% |  | 62.50 ± 5.62 % of control | 950 nM | < 50%
